Where two headings read alike, the source gives them in different places.
Assays:
Assay in all cases: Glasshouse assay for herbicidal activity (pre- and post-emergence), percentage phytotoxicity
Format in all cases: in vivo
[1] = tested on: Echinochloa crus-galli (ECHCG); settings: Echinochloa crus-galli
Description: (§1) Test—Glasshouse Assay for Herbicidal Activity
(§2) Seeds of a variety of monocotyledonous and dicotyledonous test plants are sown in standard soil in pots. The plants are cultivated for one day (for pre-emergence (PRE)) or for about 12 days (for post-emergence (POST)) under controlled conditions in a glasshouse (warm climate species at 24/18° C., cool climate species at 20/16° C., both at day/night; 16 hours light; 65% humidity).
(§3) The test plants are then grown on, in a glasshouse (greenhouse) under controlled conditions (warm climate species at 24/18° C., cool climate species at 20/16° C., both at day/night; 16 hours light; 65% humidity) and are watered twice daily. 15 days after application of the test herbicide (15 DAA) (for post-emergence), and 20 days after application of the test herbicide (20 DAA) (for pre-emergence), the test plants are evaluated visually, and an assessed percentage phytotoxicity score is given for each herbicidal application on each plant species (with 100%=total damage to plant; 0%=no damage to plant).
(§4) The plant species tested are as follows: Alopecurus myosuroides (ALOMY), Avena fatua (AVEFA), Lolium perenne (LOLPE), Echinochloa crus-galli (ECHCG).

Avena fatua (AVEFA) = settings: Avena fatua
Description: as §1, §2, §3, §4

[2] = tested on: Alopecurus myosuroides (ALOMY); settings: Alopecurus myosuroides
Description: as §1, §2, §3, §4

Lolium perenne (LOLPE) = settings: Lolium perenne
Description: as §1, §2, §3, §4

[3] = post-emergence, 360 h, POST-emergence, rate 250 g/ha, visual score 15 DAA (100%=total damage, 0%=no damage), read-out: Post-emergence herbicidal activity (percentage phytotoxicity) ECHCG POST
[4] = pre-emergence, 480 h, PRE-emergence, rate 250 g/ha, visual score 20 DAA (100%=total damage, 0%=no damage), read-out: Pre-emergence herbicidal activity (percentage phytotoxicity) ECHCG PRE
[5] = post-emergence, 360 h, POST-emergence, rate 250 g/ha, visual score 15 DAA (100%=total damage, 0%=no damage), read-out: Post-emergence herbicidal activity (percentage phytotoxicity) AVEFA POST
[6] = pre-emergence, 480 h, PRE-emergence, rate 250 g/ha, visual score 20 DAA (100%=total damage, 0%=no damage), read-out: Pre-emergence herbicidal activity (percentage phytotoxicity) AVEFA PRE
[7] = post-emergence, 360 h, POST-emergence, rate 250 g/ha, visual score 15 DAA (100%=total damage, 0%=no damage), read-out: Post-emergence herbicidal activity (percentage phytotoxicity) ALOMY POST
[8] = pre-emergence, 480 h, PRE-emergence, rate 250 g/ha, visual score 20 DAA (100%=total damage, 0%=no damage), read-out: Pre-emergence herbicidal activity (percentage phytotoxicity) ALOMY PRE
[9] = post-emergence, 360 h, POST-emergence, rate 250 g/ha, visual score 15 DAA (100%=total damage, 0%=no damage), read-out: Post-emergence herbicidal activity (percentage phytotoxicity) LOLPE POST
[10] = pre-emergence, 480 h, PRE-emergence, rate 250 g/ha, visual score 20 DAA (100%=total damage, 0%=no damage), read-out: Pre-emergence herbicidal activity (percentage phytotoxicity) LOLPE PRE
[11] = post-emergence, 360 h, Rate 250 g/ha, post-emergence, visual assessment 15 DAA, 100%=total damage, 0%=no damage, read-out: Post-emergence herbicidal activity (percentage phytotoxicity) ECHCG POST
[12] = pre-emergence, 480 h, Rate 250 g/ha, pre-emergence, visual assessment 20 DAA, 100%=total damage, 0%=no damage, read-out: Pre-emergence herbicidal activity (percentage phytotoxicity) ECHCG PRE
[13] = post-emergence, 360 h, Rate 250 g/ha, post-emergence, visual assessment 15 DAA, 100%=total damage, 0%=no damage, read-out: Post-emergence herbicidal activity (percentage phytotoxicity) AVEFA POST
[14] = pre-emergence, 480 h, Rate 250 g/ha, pre-emergence, visual assessment 20 DAA, 100%=total damage, 0%=no damage, read-out: Pre-emergence herbicidal activity (percentage phytotoxicity) AVEFA PRE
[15] = post-emergence, 360 h, Rate 250 g/ha, post-emergence, visual assessment 15 DAA, 100%=total damage, 0%=no damage, read-out: Post-emergence herbicidal activity (percentage phytotoxicity) ALOMY POST
[16] = pre-emergence, 480 h, Rate 250 g/ha, pre-emergence, visual assessment 20 DAA, 100%=total damage, 0%=no damage, read-out: Pre-emergence herbicidal activity (percentage phytotoxicity) ALOMY PRE
[17] = post-emergence, 360 h, Rate 250 g/ha, post-emergence, visual assessment 15 DAA, 100%=total damage, 0%=no damage, read-out: Post-emergence herbicidal activity (percentage phytotoxicity) LOLPE POST
[18] = pre-emergence, 480 h, Rate 250 g/ha, pre-emergence, visual assessment 20 DAA, 100%=total damage, 0%=no damage, read-out: Pre-emergence herbicidal activity (percentage phytotoxicity) LOLPE PRE

Row | Compound | pest or weed control at 250 g/ha [1, 3] [%] | pest or weed control at 250 g/ha [1, 4] [%] | pest or weed control at 250 g/ha (Avena fatua (AVEFA); [5]) [%] | pest or weed control at 250 g/ha (Avena fatua (AVEFA); [6]) [%] | pest or weed control at 250 g/ha [2, 7] [%] | pest or weed control at 250 g/ha [2, 8] [%] | pest or weed control at 250 g/ha (Lolium perenne (LOLPE); [9]) [%] | pest or weed control at 250 g/ha (Lolium perenne (LOLPE); [10]) [%] | also measured
1 | Cc1cc(-n2cc(Cl)cn2)cc(C)c1C1C(=O)CC(CC(=O)NCc2cccc(Cl)c2)C1=O (centres unmarked) [Compound B262] | 100 | 80 | 90 | 40 | 70 | 60 | 70 | 60 | –
2 | C#CCN(C)C(=O)CC1CC(=O)C(c2c(C)cc(-c3ccc(Cl)cn3)cc2C)C1=O (centres unmarked) [Compound B369] | – | – | – | – | – | – | – | – | pest or weed control at 250 g/ha [1, 11]: 100%; pest or weed control at 250 g/ha [1, 12]: 100%; pest or weed control at 250 g/ha (Avena fatua (AVEFA); [13]): 100%; pest or weed control at 250 g/ha (Avena fatua (AVEFA); [14]): 100%; pest or weed control at 250 g/ha [2, 15]: 90%; pest or weed control at 250 g/ha [2, 16]: 100%; pest or weed control at 250 g/ha (Lolium perenne (LOLPE); [17]): 90%; pest or weed control at 250 g/ha (Lolium perenne (LOLPE); [18]): 100%
3 | C=CC(C)NC(=O)CC1CC(=O)C(c2c(C)cc(-c3ccc(Cl)cn3)cc2C)C1=O (centres unmarked) [Compound B365] | – | – | – | – | – | – | – | – | pest or weed control at 250 g/ha [1, 11]: 100%; pest or weed control at 250 g/ha [1, 12]: 100%; pest or weed control at 250 g/ha (Avena fatua (AVEFA); [13]): 90%; pest or weed control at 250 g/ha (Avena fatua (AVEFA); [14]): 90%; pest or weed control at 250 g/ha [2, 15]: 90%; pest or weed control at 250 g/ha [2, 16]: 100%; pest or weed control at 250 g/ha (Lolium perenne (LOLPE); [17]): 90%; pest or weed control at 250 g/ha (Lolium perenne (LOLPE); [18]): 100%
4 | Cc1cc(C)c(C2C(=O)CC(CC(=O)NCC3(C)CC3(Cl)Cl)C2=O)c(C)c1 (centres unmarked) [Compound B82] | – | – | – | – | – | – | – | – | pest or weed control at 250 g/ha ([1]; post-emergence, 360 h, 250 g/ha, post-emergence, 15 DAA, visual assessment (100%=total damage, 0%=no damage), read-out: Post-emergence herbicidal activity (percentage phytotoxicity) ECHCG POST): 50%; pest or weed control at 250 g/ha ([1]; pre-emergence, 480 h, 250 g/ha, pre-emergence, 20 DAA, visual assessment (100%=total damage, 0%=no damage), read-out: Pre-emergence herbicidal activity (percentage phytotoxicity) ECHCG PRE): 90%; pest or weed control at 250 g/ha (Avena fatua (AVEFA); post-emergence, 360 h, 250 g/ha, post-emergence, 15 DAA, visual assessment (100%=total damage, 0%=no damage), read-out: Post-emergence herbicidal activity (percentage phytotoxicity) AVEFA POST): 60%; pest or weed control at 250 g/ha (Avena fatua (AVEFA); pre-emergence, 480 h, 250 g/ha, pre-emergence, 20 DAA, visual assessment (100%=total damage, 0%=no damage), read-out: Pre-emergence herbicidal activity (percentage phytotoxicity) AVEFA PRE): 40%; pest or weed control at 250 g/ha ([2]; post-emergence, 360 h, 250 g/ha, post-emergence, 15 DAA, visual assessment (100%=total damage, 0%=no damage), read-out: Post-emergence herbicidal activity (percentage phytotoxicity) ALOMY POST): 70%; pest or weed control at 250 g/ha ([2]; pre-emergence, 480 h, 250 g/ha, pre-emergence, 20 DAA, visual assessment (100%=total damage, 0%=no damage), read-out: Pre-emergence herbicidal activity (percentage phytotoxicity) ALOMY PRE): 70%; pest or weed control at 250 g/ha (Lolium perenne (LOLPE); post-emergence, 360 h, 250 g/ha, post-emergence, 15 DAA, visual assessment (100%=total damage, 0%=no damage), read-out: Post-emergence herbicidal activity (percentage phytotoxicity) LOLPE POST): 70%; pest or weed control at 250 g/ha (Lolium perenne (LOLPE); pre-emergence, 480 h, 250 g/ha, pre-emergence, 20 DAA, visual assessment (100%=total damage, 0%=no damage), read-out: Pre-emergence herbicidal activity (percentage phytotoxicity) LOLPE PRE): 80%
5 | COCCN(CCOC)C(=O)CC1CC(=O)C(c2c(C)cc(-c3ncc(F)cn3)cc2C)C1=O (centres unmarked) [Compound B281] | 100 | 100 | 100 | 80 | 100 | 80 | 90 | 80 | –
6 | CCC(C)NC(=O)CC1CC(=O)C(c2c(C)cc(-n3cc(Cl)cn3)cc2C)C1=O (centres unmarked) [Compound B315] | 100 | 100 | 100 | 80 | 90 | 80 | 80 | 70 | –
7 | Cc1cc(-c2ncc(F)cn2)cc(C)c1C1C(=O)CC(CC(=O)N(C)C(C)(C)C)C1=O (centres unmarked) [Compound B331] | 100 | 100 | 100 | 90 | 90 | 100 | 100 | 100 | –

— patent US10206394B2, “Herbicidal compounds” (Syngenta Participations AG, priority 2014, dated 2019)
